Assay results published in PubChem BioAssay (NCI).
Values joined by “and” are separate entries in the source; they are usually repeats but may differ in a detail not shown here. Equal values may be shown once.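 Where inhibition never reached the appropriate level, the endpoint shown equals the highest concentration tested. Otherwise, values were interpolated linearly from a five-concentration, 48-hour dose response in 96-well plates. Abbreviation: GI50, concentration required for 50% inhibition of growth. The concentration for full growth arrest is given as TGI.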

Assays:
Assay in all cases: NCI-60 cell line screen, 48 h
SK-MEL-5 melanoma = tested on: SK-MEL-5 melanoma
UACC-257 melanoma = tested on: UACC-257 melanoma
HCC-2998 colon = tested on: HCC-2998 colon
OVCAR-4 ovarian = tested on: OVCAR-4 ovarian
HOP-92 NSCLC = tested on: HOP-92 NSCLC
U251 CNS = tested on: U251 CNS
NCI-H23 lung = tested on: NCI-H23 lung
KM12 colon = tested on: KM12 colon
HT29 colon = tested on: HT29 colon
NCI-H460 lung = tested on: NCI-H460 lung

NC(=S)/N=C/c1c(O)c2ccccc2oc1=O
TGI (SK-MEL-5 melanoma): > 100000 nM
TGI (UACC-257 melanoma): > 100000 nM
TGI (HCC-2998 colon): > 100000 nM
TGI (OVCAR-4 ovarian): > 100000 nM
TGI (HOP-92 NSCLC): > 100000 nM
TGI (U251 CNS): > 100000 nM
TGI (NCI-H23 lung): > 100000 nM
TGI (KM12 colon): > 100000 nM
TGI (HT29 colon): > 100000 nM
TGI (NCI-H460 lung): > 100000 nM

CC(C)C[C@@H](NC(=O)[C@@H](Cc1ccccc1)NC(=O)c1cnccn1)B1O[C@H]2[C@H](O)[C@@H](C(=O)NCCCC[C@@H]3NC(=O)[C@@H](Cc4ccccc4)NC(=O)[C@H](CC(=O)O)NC(=O)CNC(=O)[C@H](CCCN=C(N)N)NC3=O)O[C@@H](CN)[C@H]2O1
GI50 (SK-MEL-5 melanoma): 4.57 nM and 5 nM
TGI (SK-MEL-5 melanoma): 18.8 nM and 8.55 nM
GI50 (UACC-257 melanoma): 13.5 nM and 5 nM
TGI (UACC-257 melanoma): 81.2 nM and 18.3 nM
GI50 (HCC-2998 colon): 16 nM and 7.99 nM
TGI (HCC-2998 colon): 32.3 nM and 16.5 nM
GI50 (OVCAR-4 ovarian): 9.35 nM and 5 nM
TGI (OVCAR-4 ovarian): 451 nM and 1090 nM
GI50 (HOP-92 NSCLC): 10.8 nM and 5.48 nM
TGI (HOP-92 NSCLC): 56.5 nM and 23.6 nM
GI50 (U251 CNS): 32.8 nM and 5.92 nM
TGI (U251 CNS): 218 nM and 43.1 nM
GI50 (NCI-H23 lung): 10.8 nM and 5 nM
TGI (NCI-H23 lung): 94.3 nM and 53.7 nM
GI50 (KM12 colon): 13.1 nM and 5.7 nM
TGI (KM12 colon): 43.7 nM and 17.7 nM
GI50 (HT29 colon): 4.18 nM and 5 nM
TGI (HT29 colon): 32.5 nM and 7.63 nM
GI50 (NCI-H460 lung): 34.4 nM and 17.9 nM
TGI (NCI-H460 lung): 135 nM and 185 nM

N#CC1=C(N)Oc2cc3c(cc2C1c1cccs1)OCO3 (stereo not given)
GI50 (SK-MEL-5 melanoma): 340 nM
TGI (SK-MEL-5 melanoma): > 43500 nM
GI50 (UACC-257 melanoma): 502 nM
TGI (UACC-257 melanoma): > 100000 nM
GI50 (HCC-2998 colon): 775 nM
TGI (HCC-2998 colon): 11600 nM
GI50 (OVCAR-4 ovarian): 4500 nM
TGI (OVCAR-4 ovarian): > 100000 nM
GI50 (HOP-92 NSCLC): 660 nM
TGI (HOP-92 NSCLC): 26200 nM
GI50 (U251 CNS): 397 nM
TGI (U251 CNS): 31900 nM
GI50 (NCI-H23 lung): 428 nM
TGI (NCI-H23 lung): > 100000 nM
GI50 (KM12 colon): 325 nM
TGI (KM12 colon): > 59700 nM
GI50 (HT29 colon): 377 nM
TGI (HT29 colon): 15200 nM
GI50 (NCI-H460 lung): 373 nM
TGI (NCI-H460 lung): 24400 nM

COc1ccc(C(=O)Cn2c(C(=O)c3ccc(OC)cc3)nc3ccccc32)cc1
GI50 (SK-MEL-5 melanoma): 2360 nM
TGI (SK-MEL-5 melanoma): > 27100 nM
GI50 (UACC-257 melanoma): 53000 nM
TGI (UACC-257 melanoma): > 100000 nM
GI50 (HCC-2998 colon): 5640 nM
TGI (HCC-2998 colon): > 100000 nM
GI50 (OVCAR-4 ovarian): 5800 nM
TGI (OVCAR-4 ovarian): > 100000 nM
GI50 (HOP-92 NSCLC): > 100000 nM
TGI (HOP-92 NSCLC): > 100000 nM
GI50 (U251 CNS): 3160 nM
TGI (U251 CNS): > 100000 nM
GI50 (NCI-H23 lung): 6150 nM
TGI (NCI-H23 lung): > 100000 nM
GI50 (KM12 colon): 1160 nM
TGI (KM12 colon): > 100000 nM
GI50 (HT29 colon): 576 nM
TGI (HT29 colon): > 100000 nM
GI50 (NCI-H460 lung): 3730 nM
TGI (NCI-H460 lung): > 100000 nM

COc1ccc(C(=O)Cn2c(C(=O)c3ccc(Cl)cc3)nc3ccccc32)cc1
GI50 (SK-MEL-5 melanoma): 5950 nM
TGI (SK-MEL-5 melanoma): > 100000 nM
GI50 (UACC-257 melanoma): > 100000 nM
TGI (UACC-257 melanoma): > 100000 nM
GI50 (HCC-2998 colon): 6550 nM
TGI (HCC-2998 colon): > 100000 nM
GI50 (OVCAR-4 ovarian): > 84100 nM
TGI (OVCAR-4 ovarian): > 100000 nM
GI50 (HOP-92 NSCLC): > 100000 nM
TGI (HOP-92 NSCLC): > 100000 nM
GI50 (U251 CNS): 19400 nM
TGI (U251 CNS): > 100000 nM
GI50 (NCI-H23 lung): > 57900 nM
TGI (NCI-H23 lung): > 100000 nM
GI50 (KM12 colon): 4180 nM
TGI (KM12 colon): > 100000 nM
GI50 (HT29 colon): 7580 nM
TGI (HT29 colon): > 100000 nM
GI50 (NCI-H460 lung): 25200 nM
TGI (NCI-H460 lung): > 100000 nM
